# From patent publication US5294603A, “Pharmaceutical compositions containing didemnins” (The Board of Trustees of The University of Illinois, priority 1992, dated 1994)
# Entries after “also recorded” stand apart in the source; their conditions may differ. Where two headings read alike, the source gives them in different places. Numbered stars: 1 amine (or outer) side, 2 acyl side, 3 side chain; on linkers, the order of the positions; unused ones are H or OH. Bridge positions count the residues as written; N and C are the ends. Square brackets hold non-standard residues; d marks the D form. Peptide text beside a SMILES is read from it. * marks the point of attachment. X4 = CC[C@H](C)[C@@H](N[*:1])[C@@H](O)CC(=O)O[C@@H](C(=O)[C@H](C)C(=O)[*:2])C(C)C; X7 = CC[C@H](C)[C@@H](N[*:1])[C@@H](O)CC(=O)O[C@H](C(=NO)[C@H](C)C(=O)[*:2])C(C)C; X1 = CC[C@H](C)[C@@H](N[*:1])[C@@H](O)CC(=O)O[C@H](C(=O)[C@H](C)C(=O)[*:2])C(C)C; X3 = CC[C@H](C)[C@H](N[*:1])[C@@H](O)CC(=O)O[C@H](C(=O)[C@H](C)C(=O)[*:2])C(C)C; NMeY = CN[C@@H](Cc1ccc(O)cc1)C(=O)O; aThr = C[C@H](O)[C@H](N)C(=O)O; dNMeL = CN[C@H](CC(C)C)C(=O)O; Isobutyryl = CC(C)C(=O)*; Pyruvoyl = CC(=O)C(=O)*
# Experiments:
# [1] = tested on: DNA synthesis in Nb2 node lymphoma cells; experiment: Inhibition of ongoing DNA synthesis in prolactin-stimulated Nb2 cells; assay type: cell-based, rat; details: Nb2 cells stimulated with prolactin for 24 h
# Procedure: Also inhibitions of protein and DNA synthesis of several compounds were measured using Nb2 node lymphoma cells which were stimulated by a treatment of cells with prolactin. (ibid.)
# ^a Nb2 cells were stimulated with prolactin for 24 h, then exposed to
# ^b 50% Inhibitory concentration, calculated with linear regression
# Visna virus (VIV) = assay type: cell-based; parameters: key to % Protection / VIV Protection: I, indeterminate
# [2] = tested on: cells of the VIV assay (not named)
# [3] = tested on: Nb2 cells, rat T-cell node lymphoma; experiment: Competitive binding with [3H]didemnin B to Nb2 cells; details: 3 h at 37° C.
# Procedure: The immunosuppressive assay was performed by measuring competitive binding of tested compounds with [^3 H]didemnin B to Nb2 cells, rat T-cell node lymphoma. See, Russell, D. H., et al., J. Immunology, 1987, 138, 276-284.
# ^a Competing didemnins incubated with approximately 25 ng of [^3
# [4] = tested on: L1210 murine leukemia cells; details: Table 9
# VSV = assay type: cell-based, vesicular stomatitis virus
# [5] = tested on: BHK = Baby hamster kidney cells
# HSV-1 = assay type: cell-based, Herpes simplex virus Type I
# B16 melanoma = experiment: In vivo antitumor activity, B16; parameters: species or system mice; details: for T/C (treated/control): significant >125%
# Procedure: (§1) Compound 106 was prepared semisynthetically for in vivo antitumor testing in mice.
# (§2) ^b Schedule 1-9 days i. p.
# ^e B16 melanoma. Median survival of control mice, 17.0 days.
# Lewis lung carcinoma = experiment: In vivo antitumor activity, Lewis lung; parameters: species or system mice
# Procedure: as §1, §2
# ^f Lewis lung carcinoma, median tumor volume of control mice 1372
# P388 murine lymphoma = experiment: In vivo antitumor activity, P388; parameters: species or system mice; details: for T/C (treated/control): significant >125%
# Procedure: as §1, §2
# ^d P388 murine lymphoma. Median survival of control mice, 10.0 days.
structure (smiles),measurement,setting,value
"CC[C@H](C)[C@@H]1NC(=O)[C@@H](NC(=O)[C@@H](CC(C)C)N(C)C(C)=O)[C@H](C)OC(=O)[C@H](Cc2ccc(OC)cc2)N(C)C(=O)[C@@H]2CCCN2C(=O)[C@H](CC(C)C)NC(=O)[C@@H](C)C(=O)[C@H](C(C)C)OC(=O)C[C@@H]1O [N-Acetyldidemnin A (54), N-Acetyl didemnin A] (Ac-[dNMeL][aThr][X3]LP[NMeY](Me); ester 2-C)",IC50 DNA,[1],70 ng/mL
same,Cytotoxicity percent L1210 inhibition,L1210; dose 5 ng/mL,89%
same,Cytotoxicity percent L1210 inhibition,L1210; dose 12.5 ng/mL,93%
same,Cytotoxicity percent L1210 inhibition,L1210; dose 25 ng/mL,94%
same,VIV Protection,Visna virus (VIV),I
same,VIV Toxicity,[2],94
same,Inhibition of [3H]didemnin B binding (%),[3]; 0.001 μg/mL,2%
same,Inhibition of [3H]didemnin B binding (%),[3]; 0.01 μg/mL,12%
same,Inhibition of [3H]didemnin B binding (%),[3]; 0.1 μg/mL,72%
same,Inhibition of [3H]didemnin B binding (%),[3]; 1 μg/mL,80%
same,Cytotoxicity L1210 IC50,[4],0.3 ng/mL
"CC[C@H](C)[C@H]1NC(=O)[C@@H](NC(=O)[C@@H](CC(C)C)NC)[C@@H](C)OC(=O)[C@H](Cc2ccc(OC)cc2)N(C)C(=O)[C@@H]2CCCN2C(=O)[C@H](CC(C)C)NC(=O)[C@@H](C)C(=NO)[C@H](C(C)C)OC(=O)C[C@@H]1O [[HydroxyiminoHip^2]-Didemnin A (65), [HydroxyiminoHip^2]didemnin A] (H-[dNMeL]T[X7]LP[NMeY](Me); ester 2-C)",CV-1,CV-1 monkey kidney cells,0
same,Cytotoxicity L1210 IC50,[4],20 ng/mL
"CC[C@H](C)[C@H]1NC(=O)[C@@H](NC(=O)[C@@H](CC(C)C)N(C)C(=O)[C@H]2CCCN2C(=O)C(C)=O)[C@@H](C)OC(=O)[C@H](Cc2ccc(OC)cc2)N(C)C(=O)[C@@H]2CCCN2C(=O)[C@H](CC(C)C)NC(=O)[C@@H](C)C(=O)[C@H](C(C)C)OC(=O)C[C@@H]1O [Pyruv-D-Pro-DA, Pyruv-D-Pro Didemnin A] (Pyruvoyl-[dP][dNMeL]T[X1]LP[NMeY](Me); ester 3-C)",VSV,VSV,+ ++
same,IC50,L1210 cells,6 ng/mL
same,cytotoxicity compared with DDB,L1210 cells,only partially active
CC[C@H](C)[C@H]1NC(=O)[C@@H](NC(=O)[C@@H](CC(C)C)N(C)C(=O)[C@@H]2CCCN2C(=O)C(C)C)[C@@H](C)OC(=O)[C@H](Cc2ccc(OC)cc2)N(C)C(=O)[C@@H]2CCCN2C(=O)[C@H](CC(C)C)NC(=O)[C@@H](C)C(=O)[C@H](C(C)C)OC(=O)C[C@@H]1O [[Isobutyryl^9]didemnin B] (Isobutyryl-P[dNMeL]T[X1]LP[NMeY](Me); ester 3-C),VIV Protection,Visna virus (VIV),-93
same,Inhibition of [3H]didemnin B binding (%),[3]; 0.001 μg/mL,2%
same,Inhibition of [3H]didemnin B binding (%),[3]; 0.01 μg/mL,4%
same,Inhibition of [3H]didemnin B binding (%),[3]; 0.1 μg/mL,59%
same,Inhibition of [3H]didemnin B binding (%),[3]; 1 μg/mL,75%
same,BHK,[5],"0, PT"
same,HSV-1,HSV-1,++ +
same,Cytotoxicity L1210 IC50,[4],0.2 ng/mL
"CC[C@H](C)[C@H]1NC(=O)[C@@H](NC(=O)[C@@H](CC(C)C)N(C)C(=O)[C@@H]2CCCN2C(=O)C(C)=O)[C@@H](C)OC(=O)[C@H](Cc2ccc(OC)cc2)N(C)C(=O)[C@@H]2CCCN2C(=O)[C@H](CC(C)C)NC(=O)[C@@H](C)C(=O)[C@H](C(C)C)OC(=O)C[C@@H]1O [[Pyruvyl^9]Didemnin B (106), Dehydrodidemnin B] (Pyruvoyl-P[dNMeL]T[X1]LP[NMeY](Me); ester 3-C)",VIV Protection,Visna virus (VIV),-92
same,activity against VIV,Visna virus (VIV),completely inactive
same,antiviral activity against VSV,VSV,high order
same,HSV-1,HSV-1,+ +
same,antiviral activity against HSV-1,HSV-1,several times more active than DB; also recorded: high order
same,Cytotoxicity L1210 IC50,[4],0.2 ng/mL
same,Alive (day 24),"B16 melanoma; B16, 40 μg/kg/day",0
same,Median Survival,"B16 melanoma; B16, 40 μg/kg/day",30 days
same,Body wt. chenge.,"B16 melanoma; B16, 40 μg/kg/day i. p. days 1-9",0.1 g
same,T/C (treated/control),"B16 melanoma; B16, 40 μg/kg/day",178%
same,Alive (day 24),"B16 melanoma; B16, 80 μg/kg/day",0
same,Median Survival,"B16 melanoma; B16, 80 μg/kg/day",32 days
same,Body wt. chenge.,"B16 melanoma; B16, 80 μg/kg/day i. p. days 1-9",-0.5 g
same,T/C (treated/control),"B16 melanoma; B16, 80 μg/kg/day",188%
same,Alive (day 24),"B16 melanoma; B16, 160 μg/kg/day",0
same,Median Survival,"B16 melanoma; B16, 160 μg/kg/day",37 days
same,Body wt. chenge.,"B16 melanoma; B16, 160 μg/kg/day i. p. days 1-9",-1.3 g
same,T/C (treated/control),"B16 melanoma; B16, 160 μg/kg/day",218%
same,IC50,L1210 cells,0.2 ng/mL
same,cytotoxic activity against L1210,L1210 cells,several times more active than DB
same,Median Tumor Vol.,Lewis lung carcinoma; 40 μg/kg/day,473 mm^3
same,"N. P. (Day 14), number of nonpalpable tumors",Lewis lung carcinoma; 40 μg/kg/day,0
same,Body Wt. Chenge.,Lewis lung carcinoma; 40 μg/kg/day i. p. days 1-9,-2.6 g
same,Median Tumor Vol.,Lewis lung carcinoma; 80 μg/kg/day,163 mm^3
same,"N. P. (Day 14), number of nonpalpable tumors",Lewis lung carcinoma; 80 μg/kg/day,2
same,Median Tumor Vol.,Lewis lung carcinoma; 160 μg/kg/day,0 mm^3
same,"N. P. (Day 14), number of nonpalpable tumors",Lewis lung carcinoma; 160 μg/kg/day,5
same,Body Wt. Chenge.,Lewis lung carcinoma; 160 μg/kg/day i. p. days 1-9,-3.7 g
same,Alive (day 23),"P388 murine lymphoma; P388, 80 μg/kg/day",0
same,Median Survival,"P388 murine lymphoma; P388, 80 μg/kg/day",19.5 days
same,Body wt. chenge.,"P388 murine lymphoma; P388, 80 μg/kg/day i. p. days 1-9",-1.4 g
same,T/C (treated/control),"P388 murine lymphoma; P388, 80 μg/kg/day",195%
same,Alive (day 23),"P388 murine lymphoma; P388, 160 μg/kg/day",0
same,Median Survival,"P388 murine lymphoma; P388, 160 μg/kg/day",21.0 days
same,Body wt. chenge.,"P388 murine lymphoma; P388, 160 μg/kg/day i. p. days 1-9",-3.2 g
same,T/C (treated/control),"P388 murine lymphoma; P388, 160 μg/kg/day",210%
same,Alive (day 23),"P388 murine lymphoma; P388, 320 μg/kg/day",0
same,Median Survival,"P388 murine lymphoma; P388, 320 μg/kg/day",6.0 days
same,Body wt. chenge.,"P388 murine lymphoma; P388, 320 μg/kg/day i. p. days 1-9",-3.3 g
same,T/C (treated/control),"P388 murine lymphoma; P388, 320 μg/kg/day",60%
"CC[C@H](C)[C@H]1NC(=O)[C@@H](NC(=O)[C@@H](CC(C)C)N(C)C(=O)[C@@H]2CCCN2C(=O)[C@H](C)O)[C@@H](C)OC(=O)[C@H](Cc2ccc(O)cc2)NC(=O)[C@@H]2CCCN2C(=O)[C@H](CC(C)C)NC(=O)[C@@H](C)C(=O)[C@H](C(C)C)OC(=O)C[C@@H]1O [Didemnin N (13), Didemnin N]",IC50 DNA,[1],"200,000 ng/mL"
same,CV-1,CV-1 monkey kidney cells,0
same,Inhibition of [3H]didemnin B binding (%),[3]; 0.001 μg/mL,3%
same,Inhibition of [3H]didemnin B binding (%),[3]; 0.01 μg/mL,6%
same,Inhibition of [3H]didemnin B binding (%),[3]; 0.1 μg/mL,4%
same,Inhibition of [3H]didemnin B binding (%),[3]; 1 μg/mL,10%
same,Cytotoxicity L1210 IC50,[4],30 ng/mL
"CC[C@H](C)[C@H]1NC(=O)[C@@H](NC(=O)[C@@H](CC(C)C)NC)[C@@H](C)OC(=O)[C@H](Cc2ccc(OC)cc2)N(C)C(=O)[C@@H]2CCCN2C(=O)[C@H](CC(C)C)NC(=O)[C@@H](C)C(=O)[C@@H](C(C)C)OC(=O)C[C@@H]1O [Epididemnin A (15), Epididemnin A] (H-[dNMeL]T[X4]LP[NMeY](Me); ester 2-C)",IC50 DNA,[1],inactive (1 g)
same,VIV Protection,Visna virus (VIV),< 0
same,CV-1,CV-1 monkey kidney cells,0
same,Inhibition of [3H]didemnin B binding (%),[3]; 0.001 μg/mL,0%
same,Inhibition of [3H]didemnin B binding (%),[3]; 0.01 μg/mL,3%
same,Inhibition of [3H]didemnin B binding (%),[3]; 0.1 μg/mL,9%
same,Inhibition of [3H]didemnin B binding (%),[3]; 1 μg/mL,12%
same,Cytotoxicity L1210 IC50,[4],300 ng/mL
"CC[C@H](C)[C@H]1NC(=O)[C@@H](NC(=O)[C@@H](CC(C)C)NC)[C@@H](C)OC(=O)[C@H](Cc2ccc(OC)cc2)N(C)C(=O)[C@@H]2CCCN2C(=O)[C@H](CC(C)C)NC(=O)[C@@H](C)[C@@H](O)[C@H](C(C)C)OC(=O)C[C@@H]1OC(C)=O [O-Acetyl-[H2-(2S,3R,4S)Hip^2]didemnin A]",CV-1,CV-1 monkey kidney cells,0
same,Inhibition of [3H]didemnin B binding (%),[3]; 0.001 μg/mL,0%
same,Inhibition of [3H]didemnin B binding (%),[3]; 0.01 μg/mL,0%
same,Inhibition of [3H]didemnin B binding (%),[3]; 0.1 μg/mL,2%
same,Inhibition of [3H]didemnin B binding (%),[3]; 1 μg/mL,19%
same,Cytotoxicity L1210 IC50,[4],1000 ng/mL
